The record followed here is patent US5049506A, “Proline-containing decapeptides as substrates for factor XIII” (Behringwerke Aktiengesellschaft, priority 1987, dated 1991).

Non-standard residues stand in square brackets, D forms with d. Residues, ends and D or L forms follow the SMILES beside them. Hyp = O=C(O)[C@@H]1C[C@@H](O)CN1

This test concerns the target T1, factor XIII (Homo sapiens, UniProt P00488).
T1 sequence (P00488 39-732 limits assumed): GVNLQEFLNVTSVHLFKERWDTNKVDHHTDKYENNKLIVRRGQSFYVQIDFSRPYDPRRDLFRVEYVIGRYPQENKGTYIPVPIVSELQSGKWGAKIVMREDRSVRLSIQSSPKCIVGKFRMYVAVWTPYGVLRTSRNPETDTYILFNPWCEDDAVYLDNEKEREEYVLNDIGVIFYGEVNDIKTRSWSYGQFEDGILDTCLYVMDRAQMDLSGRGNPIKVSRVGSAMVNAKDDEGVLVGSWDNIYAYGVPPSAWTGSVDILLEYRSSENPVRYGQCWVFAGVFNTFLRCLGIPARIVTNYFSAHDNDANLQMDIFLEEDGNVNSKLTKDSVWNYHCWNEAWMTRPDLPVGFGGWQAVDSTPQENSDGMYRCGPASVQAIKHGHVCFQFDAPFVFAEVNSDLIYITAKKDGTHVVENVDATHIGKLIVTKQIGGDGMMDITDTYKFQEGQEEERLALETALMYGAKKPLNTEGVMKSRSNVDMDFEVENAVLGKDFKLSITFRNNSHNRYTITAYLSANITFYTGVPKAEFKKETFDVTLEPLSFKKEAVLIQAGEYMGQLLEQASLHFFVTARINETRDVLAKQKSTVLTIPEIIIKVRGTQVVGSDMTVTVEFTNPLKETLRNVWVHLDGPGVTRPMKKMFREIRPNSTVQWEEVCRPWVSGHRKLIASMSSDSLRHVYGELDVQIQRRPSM
The experiment in a line: Determination of factor XIII activity by photometric measurement (peptide as substrate, NADH/GLDH-coupled ammonia detection). It is filed as biochemical. Conditions: decrease in extinction at 340 nm; factor XIII 0.6 U activated with thrombin at 37° C. for 10 min; 100 μl decapeptide amide solution (10 mg/ml in H2O); glycine ethyl ester. How it is done: To test the peptides for their suitability as substrates for the transglutaminase F XIII, a sample solution which contains factor XIII is activated in a buffer mixture which contains about 30mmol/1 calcium chloride at pH 7.6±0.5 with thrombin. The peptide solutions, a solution of an amine derivative, for example glycine ethyl ester or glycine methyl ester, ketoglutarate buffer, glutamic dehydrogenase and an NADH solution are then added. The liberation of ammonia from the decapeptide amide is then measured by means of the decrease in extinction at 340±15nm, and the activity of F XIII is determined.
50 μl of a solution containing factor XIII (0.6 U), which had been adjusted to pH 7.6 and which contained 50 millimolar HEPES, 150 milli molar sodium chloride and 30 millimolar CaC12, were incubated with 25 μl of thrombin solution (30 units dissolved in 1 ml physiological saline) in a 1 ml cuvette at 37° C. for 10 min. 700 μl of a buffer solution composed of triethanolamine pH 8.0, 2.2 g of alpha-ketoglutarate/liter and 133 mg of NADH/liter were added. The sample solution was then mixed with 25 μl of a solution of […] of glutamic dehydrogenase (about 120 units/mg), 100 ml of glycerol, pH 7, 100 μl of glycine ethyl ester (30 mg/ml in H2 O) and 100 μl of decapeptide amide solution (10 mg/ml in H2 O). The decrease in extinction was measured. The results of the kinetic measurement at 340 nm are to be found in the form of delta OD/min values in the following Tables.

`CC(C)C[C@H](NC(=O)[C@@H](NC(=O)[C@H](CCCCN)NC(=O)[C@H](CO)NC(=O)[C@H](CCC(N)=O)NC(=O)CNC(=O)[C@@H]1CCCN1C(=O)CNC(=O)[C@@H](N)CC(C)C)C(C)C)C(=O)NCC(N)=O` [Leu--Gly--Pro--Gly--Gln--Ser--Lys--Val--Leu--Gly--NH2] (H-LGPGQSKVLG-NH2): the “Delta OD/min” value is recorded as 0.32 OD/min.
The value for `CC[C@H](C)[C@H](NC(=O)[C@@H](NC(=O)[C@H](CCCCN)NC(=O)[C@H](CO)NC(=O)[C@H](CCC(N)=O)NC(=O)CNC(=O)[C@@H]1CCCN1C(=O)CNC(=O)[C@@H](N)CC(C)C)C(C)C)C(=O)NCC(N)=O` [Leu--Gly--Pro--Gly--Gln--Ser--Lys--Val--Ile--Gly--NH2] (H-LGPGQSKVIG-NH2) was 0.35 OD/min.
The value for `CC(C)C[C@H](NC(=O)[C@@H](NC(=O)[C@H](CCCCN)NC(=O)[C@H](CO)NC(=O)[C@H](CCC(N)=O)NC(=O)CNC(=O)[C@@H]1C[C@@H](O)CN1C(=O)CNC(=O)[C@@H](N)CC(C)C)C(C)C)C(=O)NCC(N)=O` [Leu--Gly--Hyp--Gly--Gln--Ser--Lys--Val--Leu--Gly--NH2] (H-LG[Hyp]GQSKVLG-NH2) was 0.27 OD/min.
